LD50, effective concentration and anti-HIV activity data for nine compounds are collected here from patent EP0243192B1, “Antiviral 8-Phenylxanthines” (THE WELLCOME FOUNDATION LIMITED, priority 1986, dated 1987).

Data set [1] in a line: standard LD50 test, intraperitoneal administration to mice. As to conditions: mouse, in vivo, ip, read-out: LD₅₀. On the procedure: The toxicity of a representative number of compounds of the present invention was determined by using the standard LD₅₀ test.
A further data set concerns HIV. The data set can be described thus: in-vitro anti-HIV assay system as described in Mitsuya et al. The format is cell-based. As to conditions: for effective concentration: concentration of the drug at which effects were seen (3µM to 30µM). As to the method: The anti-HIV activity of various compounds was tested using an in-vitro assay system as described in H Mitsuya et al; (Proc Natl. Acad.Sci. USA Vol 82 pp 7096-7100, October 1985).
From the information obtained the 50% effective dose (ED₅₀ value) was estimated and the results expressed as active (+) or very active (++).

As for `CC(C)Cn1c(=O)n(C)c(=O)c2nc(-c3ccc(/C=C/C(=O)O)cc3)[nH]c21` [(E)-4-(1,2,3,6-tetrahydro-3-isobutyl-1-methyl-2,6-dioxo-9H-purin-8-yl)cinnamic acid], in data set [1], the LD50 was > 100 mg/kg.

In the case of `CC(C)Cn1c(=O)[nH]c(=O)c2nc(-c3ccc(/C=C/C(=O)O)cc3)[nH]c21` [(E)-4-(1,2,3,6-tetrahydro-3-isobutyl-2,6-dioxo-9H-purin-8-yl)cinnamic acid], the LD50 in data set [1] is > 100 mg/kg.

For `Cn1c(=O)[nH]c(=O)c2nc(-c3ccc(/C=C/C(=O)O)cc3)[nH]c21` [(E)-4-(1,2,3,6-tetrahydro-3-methyl-2,6-dioxo-9H-purin-8-yl)cinnamic acid], in data set [1], the LD50 is > 500 mg/kg.

The compound `O=C(O)/C=C/c1ccc(-c2nc3c(=O)n(Cc4ccccc4)c(=O)n(Cc4ccccc4)c3[nH]2)cc1` [(E)-4-(1,3-dibenzyl-1,2,3,6-tetrahydro-2,6-dioxo-9H-purin-8-yl)cinnamic acid] showed an effective concentration in the data set on HIV of 3 to 15 µM. Besides, the anti-HIV activity result in the data set on HIV (statement in words) was “particularly potent”.

For the compound `CCCCn1c(=O)c2nc(-c3ccc(/C=C/C(=O)O)cc3)[nH]c2n(CCCC)c1=O` [(E)-4-(1,3-dibutyl-1,2,3,6-tetrahydro-2,6-dioxo-9H-purin-8-yl)cinnamic acid], in data set [1], the LD50 was > 100 mg/kg. In the data set with HIV, the effective concentration stood at 30 µM.

The compound `CCCn1c(=O)n(Cc2ccccc2)c(=O)c2nc(-c3ccc(/C=C/C(=O)O)cc3)[nH]c21` [(E)-4-(1-Benzyl-1,2,3,6-tetrahydro-2,6-dioxo-3-propyl-9H-purin-8-yl)cinnamic acid] had an effective concentration in the data set with HIV of 30 µM.

In the data set with HIV, `CCCn1c(=O)c2nc(-c3ccc(/C=C/C(=O)O)cc3)[nH]c2n(Cc2ccccc2)c1=O` [(E)-4-(3-Benzyl-1,2,3,6-tetrahydro-2,6-dioxo-1-propyl-9H-purin-8-yl)cinnamic acid] came in with an effective concentration of 30 µM.

As to `Cn1c(=O)c2nc(-c3ccc(/C=C/C(=O)O)cc3)[nH]c2n(Cc2ccccc2)c1=O` [(E)-4-(3-benzyl-1,2,3,6-tetrahydro-1-methyl-2,6-dioxo-9H-purin-8-yl)cinnamic acid], the LD50 in data set [1] is > 100 mg/kg.

In the case of `CCCCn1c(=O)n(C)c(=O)c2nc(-c3ccc(/C=C/C(=O)O)cc3)[nH]c21` [(E)-4-(3-butyl-1,2,3,6-tetrahydro-1-methyl-2,6-dioxo-9H-purin-8-yl)cinnamic acid], the LD50 in data set [1] is > 100 mg/kg.
